How the values were obtained:
vibrio harveyi = vibrio harveyi assay (quorum sensing inhibition); format: cell-based
[1] = system: Escherichia coli JB525 (E. coli MT102 harboring the gfp plasmid pJBA132); assay: Escherichia coli JB525 assay (quorum sensing inhibition); format: cell-based

For `O=C(/C=C/CCl)O[C@@H]1COC(=O)C1` [Honaucin A], which “inhibition of AI-1 and AI-2 mediated quorum sensing” value (vibrio harveyi) is on record?
Its value is “good inhibition”.

And the “inhibition of AI-1 and AI-2 mediated quorum sensing” value [1]?
Its value is “good inhibition”.
